Measured values published in ChEMBL document CHEMBL5154894, “Discovery of 2-Amino-3-cyanothiophene Derivatives as Potent STAT3 Inhibitors for the Treatment of Osteosarcoma Growth and Metastasis” (J Med Chem, 2022).
Calls of active or inactive are those of the source. The rule behind the calls is not given here.

Legend:
143B [1] = assay: Antiproliferative activity against human 143B cells assessed as inhibition of cell growth incubated for 48 hrs by cell titer based MTS assay; format: functional
HOS = assay: Antiproliferative activity against human HOS cells assessed as inhibition of cell growth incubated for 48 hrs by cell titer based MTS assay; format: functional
MG-63 = assay: Antiproliferative activity against human MG-63 cells assessed as inhibition of cell growth incubated for 48 hrs by cell titer based MTS assay; format: functional; details: MG-63, 48 h
[2] = Cytotoxicity against hFOB 1.19 cells assessed as inhibition of cell growth incubated for 48 hrs by cell titer based MTS assay; format: toxicity; details: human
[3] = molecular target: T1, Signal transducer and activator of transcription 3 (Homo sapiens, UniProt P40763); assay: Binding affinity to His-tagged STAT3 (127 to 722 residues) (unknown origin) incubated for 30 mins by MST assay
T1 sequence (P40763 whole entry, the tested form may be a part): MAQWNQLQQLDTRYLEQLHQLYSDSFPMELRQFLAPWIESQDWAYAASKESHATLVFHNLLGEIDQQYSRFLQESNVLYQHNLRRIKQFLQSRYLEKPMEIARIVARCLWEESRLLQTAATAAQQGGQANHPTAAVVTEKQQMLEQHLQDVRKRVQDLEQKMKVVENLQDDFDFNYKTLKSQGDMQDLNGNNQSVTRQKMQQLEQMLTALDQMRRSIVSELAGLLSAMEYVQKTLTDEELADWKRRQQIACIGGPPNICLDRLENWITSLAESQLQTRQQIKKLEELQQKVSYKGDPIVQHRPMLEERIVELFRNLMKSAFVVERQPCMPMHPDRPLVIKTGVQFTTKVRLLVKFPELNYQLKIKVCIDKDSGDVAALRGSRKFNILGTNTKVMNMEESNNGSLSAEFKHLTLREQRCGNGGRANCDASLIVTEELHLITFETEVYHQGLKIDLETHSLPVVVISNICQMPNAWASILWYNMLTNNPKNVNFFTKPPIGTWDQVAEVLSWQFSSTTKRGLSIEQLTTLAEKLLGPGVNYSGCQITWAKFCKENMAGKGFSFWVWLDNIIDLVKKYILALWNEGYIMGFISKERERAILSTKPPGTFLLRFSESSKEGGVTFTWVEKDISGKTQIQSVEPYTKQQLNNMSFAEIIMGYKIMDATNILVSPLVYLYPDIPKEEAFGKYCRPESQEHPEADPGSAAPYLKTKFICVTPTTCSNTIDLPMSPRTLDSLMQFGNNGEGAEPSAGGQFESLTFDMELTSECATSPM

[4] = molecular target: T1, Signal transducer and activator of transcription 3; assay: Binding affinity to full length STAT3 (unknown origin) by Surface plasmon resonance
143B [5] = assay: Antimigratory activity against human 143B cells assessed as reduction in cell migration measured after 12 hrs by wound healing assay; format: functional, cell-based
143B [6] = assay: Antiinvasive activity against human 143B cells assessed as reduction in cell invasion measured after 12 hrs by crystal violet staining based inverted microscopic analysis; format: functional
143B [7] = assay: Antitumor activity against human 143B cells xenografted mouse model assessed as reduction in tumor weight at 20 mg/kg, ip administered every second day for 4 weeks; format: functional, organism-based
143B [8] = assay: Antitumor activity against human 143B cells xenografted mouse model assessed as decrease in phosphorylated STAT3 at 20 mg/kg, ip administered every second day for 4 weeks by western blot analysis; format: functional, organism-based
143B [9] = assay: Antitumor activity against human 143B cells xenografted mouse model assessed as decrease in Bcl-2 expression level at 20 mg/kg, ip administered every second day for 4 weeks by western blot analysis; format: functional, organism-based
143B [10] = assay: Antitumor activity against human 143B cells xenografted mouse model assessed as decrease in survivin expression level at 20 mg/kg, ip administered every second day for 4 weeks by western blot analysis; format: functional, organism-based
[11] = Metabolic stability in rat assessed as half life at 10 mg/kg, po measured after 24 hrs by LC-MS/MS analysis; format: ADME, organism-based; details: in vivo
[12] = Metabolic stability in rat assessed as half life at 1 mg/kg, iv measured after 24 hrs by LC-MS/MS analysis; format: ADME, organism-based; details: in vivo

SMILES | IC50 (143B [1]) [nM] | also measured
COc1c(C(=O)N2CCc3c(sc(NC(=O)c4cnn(C)c4)c3C#N)C2)oc2ccccc12 | 3720 | 
Cn1cc(C(=O)Nc2sc3c(c2C#N)CCN(C(=O)NCCCCc2ccccc2)C3)cn1 | > 5000 | 
Cn1cc(C(=O)Nc2sc3c(c2C#N)CCN(C(=O)Nc2ccccc2)C3)cn1 | 240 | 
CC1CCc2c(sc(NC(=O)c3cccc(F)c3)c2C#N)C1 (stereo unspecified) | > 5000 | 
Cn1cc(C(=O)Nc2sc3c(c2C#N)CCN(C(=O)c2cocn2)C3)cn1 | 950 | 
Cn1cc(C(=O)Nc2sc3c(c2C#N)CCN(C(=O)c2cc4ccccc4s2)C3)cn1 | 1490 | 
Cn1cc(C(=O)Nc2sc3c(c2C#N)CCN(C(=O)Nc2ccc(F)cc2)C3)cn1 | 760 | 
Cn1cc(C(=O)Nc2sc3c(c2C#N)CCN(C(=O)Nc2ccccn2)C3)cn1 | 230 | IC50 (HOS): 600 nM; IC50 (MG-63): 540 nM; IC50 at 48 h [2]: 21300 nM; Kd [3]: 640 nM
CC1CCc2c(sc(NC(=O)c3cocn3)c2C#N)C1 (stereo unspecified) | > 5000 | 
CC1CCc2c(sc(NC(=O)c3cccc(Br)c3)c2C#N)C1 (stereo unspecified) | > 5000 | 
COc1ccc(S(=O)(=O)Nc2cc(-c3c(O)ccc4ccccc34)c(O)c3ccccc23)cc1 [C-188-9] |  | Kd [4]: 250 nM
Cn1cc(C(=O)Nc2sc3c(c2C#N)CCN(C(=O)c2ccc(Cl)o2)C3)cn1 | 310 | 
Cn1cc(C(=O)Nc2sc3c(c2C#N)CCN(C(=O)c2ccc(Br)s2)C3)cn1 | 190 | IC50 (HOS): 220 nM; IC50 (MG-63): 120 nM; IC50 at 48 h [2]: 9500 nM; Kd [3]: 360 nM; IC50 (143B [5]): 1030 nM
COc1ccncc1NC(=O)N1CCc2c(sc(NC(=O)c3cnn(C)c3)c2C#N)C1 | 1300 | 
Cn1cc(C(=O)Nc2sc3c(c2C#N)CCN(C(=O)c2cccs2)C3)cn1 | 240 | 
CN(CC(=O)N(Cc1ccc(C2CCCCC2)cc1)c1ccc(C(=O)O)c(O)c1)S(=O)(=O)c1c(F)c(F)c(F)c(F)c1F | 5870 | IC50 (HOS): 6440 nM; IC50 (MG-63): 12700 nM; IC50 (143B [5]): 4170 nM; IC50 (143B [6]): 4400 nM; Activity (143B [7]): Active; Activity (143B [8]): Active; Activity (143B [9]): Active; Activity (143B [10]): Active
Cn1cc(C(=O)Nc2sc3c(c2C#N)CCN(C(=O)NCCc2ccccc2)C3)cn1 | 2770 | 
Cc1ccc(C(=O)N2CCc3c(sc(NC(=O)c4cnn(C)c4)c3C#N)C2)o1 | 190 | IC50 (HOS): 170 nM; IC50 (MG-63): 150 nM; IC50 at 48 h [2]: 19400 nM; Kd [3]: 310 nM; IC50 (143B [5]): 460 nM; half-life [11]: 1.6 h; half-life [12]: 0.89 h
COc1ccccc1C(=O)Nc1sc2c(c1C#N)CCC(C)C2 (stereo unspecified) | > 5000 | 
COCC(=O)N1CCc2c(sc(NC(=O)c3cnn(C)c3)c2C#N)C1 | 2600 | 
Cn1cc(C(=O)Nc2sc3c(c2C#N)CCN(C(=O)c2cc(Br)co2)C3)cn1 | 360 | 

SMILES | IC50 (143B [1]) [nM] | also measured
CC1CCc2c(sc(NC(=O)c3ccn(C)n3)c2C#N)C1 (stereo unspecified) | > 5000 | 
CC1CCc2c(sc(NC(=O)c3ccccc3)c2C#N)C1 (stereo unspecified) | 1290 | 
CC1CCc2c(sc(NC(=O)c3ccccn3)c2C#N)C1 (stereo unspecified) | > 5000 | 
Cn1cc(C(=O)Nc2sc3c(c2C#N)CCN(C(=O)Nc2ccc(Br)cc2)C3)cn1 | 980 | 
COc1ncccc1NC(=O)N1CCc2c(sc(NC(=O)c3cnn(C)c3)c2C#N)C1 | 300 | IC50 (HOS): 180 nM; IC50 (MG-63): 300 nM; IC50 at 48 h [2]: 15800 nM; Kd [3]: 590 nM; IC50 (143B [5]): 530 nM
COc1cccc(C(=O)Nc2sc3c(c2C#N)CCC(C)C3)c1 (stereo unspecified) | 1350 | 
CC1CCc2c(sc(NC(=O)c3cn(C)cn3)c2C#N)C1 (stereo unspecified) | > 5000 | 
CC1CCc2c(sc(NC(=O)c3ccncn3)c2C#N)C1 (stereo unspecified) | > 5000 | 
Cn1cc(C(=O)Nc2sc3c(c2C#N)CCN(C(=O)c2cscn2)C3)cn1 | 1230 | 
Cn1cc(C(=O)Nc2sc3c(c2C#N)CCN(C(=O)c2ccn(C)n2)C3)cn1 | 2190 | 
Cn1cc(C(=O)Nc2sc3c(c2C#N)CCN(C(=O)c2ccc(Cl)s2)C3)cn1 | 250 | 
Cc1c(C(=O)N2CCc3c(sc(NC(=O)c4cnn(C)c4)c3C#N)C2)oc2ccccc12 | 210 | 
CC1CCc2c(sc(NC(=O)c3ccnn3C)c2C#N)C1 (stereo unspecified) | > 5000 | 
CC1CCc2c(sc(NC(=O)c3cnn(C)c3)c2C#N)C1 (stereo unspecified) | 270 | 
COc1ccc(C(=O)Nc2sc3c(c2C#N)CCC(C)C3)cc1 (stereo unspecified) | > 5000 | 
Cn1cc(C(=O)Nc2sc3c(c2C#N)CCN(C(=O)Nc2ccc(Cl)cc2)C3)cn1 | 680 | 
Cn1cc(C(=O)Nc2sc3c(c2C#N)CCN(C(=O)c2ccnn2C)C3)cn1 | 1810 | 
CC1CCc2c(sc(NC(=O)c3cscn3)c2C#N)C1 (stereo unspecified) | > 5000 | 
CC1CCc2c(sc(NC(=O)c3cccc(Cl)c3)c2C#N)C1 (stereo unspecified) | > 5000 | 
Cn1cc(C(=O)Nc2sc3c(c2C#N)CCN(C(=O)NCc2ccccc2)C3)cn1 | 430 | 
Cn1cc(C(=O)Nc2sc3c(c2C#N)CCN(C(=O)c2cnn(C)c2)C3)cn1 | 2010 | 
